Laboratory results reported in patent US4753938A, “Condensed as-triazine derivatives” (Richter Gedeon Vegyeszeti Gyar Rt., priority 1983, dated 1988).

Legend:
[1] = tested on: tetrabenazine ptosis on mice; test: Antagonism of tetrabenazine ptosis on mice, p.o.; assay type: in vivo; settings: for ED50: Mus musculus, po, 0.5 h, 50 mg./kg. tetrabenazine i.p. 30 minutes later
Protocol: (§1) (2) Antagonism of Tetrabenazine ptosis on mice and rats, p.o. […] The results are evaluated as follows: on the basis of all the measured data an average ptosis is calculated for each group and the deviation from the average of the control group is expressed in percents (inhibition). The ED50 values are calculated from the data thus obtained.

reserpine ptosis on rats = test: Antagonism of reserpine ptosis on rats, p.o.; assay type: in vivo; settings: Rattus norvegicus, po, 1 h, 60 minutes after 2.5 mg./kg. reserpine s.c.
Protocol: (4) Antagonism of reserpine ptosis on rats, p.o. […] The animals showing ptosis are counted until the effect decreases. The evaluation is carried out as described in connection with the previous ptosis test (test 2).

[2] = tested on: tetrabenazine ptosis on rats; test: Antagonism of tetrabenazine ptosis on rats, p.o.; assay type: in vivo; settings: Rattus norvegicus, po
Protocol: as §1

[3] = tested on: tremorine-induced tremor in mice; test: Antitremorine effect on mice; assay type: in vivo
Protocol: (7) Antitremorine effect on mice 20 mg./kg. of tremorine are administered i.p. to mice whereupon after 45 minutes the induced characteristic tremor is registered. The test compounds are administered orally 1 hour before the addition of tremorine.

[4] = tested on: yohimbine toxicity on mice; test: Potentiation of yohimbine toxicity on mice (method of Quinton); assay type: in vivo; settings: for ED50: Mus musculus, ip, read-out: ED50, potentiation of yohimbine toxicity; for Ther. index, potentiation of yohimbine toxicity: mice
Protocol: (5) Potentiation of yohimbine toxicity on mice
The tests are carried out according to the method of Quinton. Animal groups consisting of 10 mice each are treated with the test compound. After an hour a sublethal dose of yohimbine is administered intraperitoneally at a rate of 20 ml./kg. The killed animals are counted after 1 and 24 hours, respectively.

[5] = tested on: aconitine-induced ECG changes in rats; test: Antiarrhythmial effect on rats (aconitine, modified method of Marmo et al.); assay type: in vivo; settings: aconitine 75 μg./kg. i.v.
Protocol: (6) Antiarrhythmial effect on rats
The test is carried out according to the modified method of Marmo et al. The test animals are narcotized with ethyl urethane (1.2 g./kg. i.p.). Aconitine is administered intravenously in the form of a bolus injection in a dose of 75 μg./kg. The changes of ECG are followed in standard II outlet 5 minutes after the administration of aconitine. The changes observed are evaluated with the aid of a scale from 0 to 5 points. The test compound is administered either intravenously 2 minutes before the addition of aconitine, or orally 1 hour before the aconitine administration.

[6] = Acute toxicity on mice, oral (LD50, Litchfield-Wilcoxon, 7 days observation); settings: mouse, in vivo
Protocol: (1) Acute toxicity on mice
The test is carried out on male and female white mice belonging to the CFLP strain and weighing 18-22 g. The test compound is administered orally and the animals are observed for a period of 7 days. In the groups for each dose half of the animals are male and the other half are female. The animals are kept in a plastic box (39×12×12 cm) on scrapings litter at room temperature. The mice receive standard fodder and tap water ad libitum. The toxicity data are determined by the method of Litchfield-Wilcoxon.
The test compounds are used in a suspension formed with 0.5% carboxymethyl cellulose.

reserpine ptosis on mice = test: Antagonism of reserpine ptosis on mice, p.o.; assay type: in vivo; settings: for ED50: Mus musculus, po, 1 h, 60 minutes after 6 mg./kg. reserpine s.c.
Protocol: (3) Antagonism of reserpine ptosis on mice, p.o. Animal groups consisting of 10 mice each are treated subcutaneously with 6 mg./kg. of reserpine. The test compound is administered orally after 60 minutes. The animals showing a ptosis are counted after 60 and 120 minutes. The evaluation is carried out as described in connection with the previous ptosis test No. 2.

| SMILES | Ther. index, tetrabenazine ptosis [1] | ED50 [1] | ED50 (reserpine ptosis on rats) | ED50 [2] | ED50 ([3]; Mus musculus, po, p.o. 1 hour before tremorine 20 mg./kg. i.p.) | Ther. index, antitremorine effect ([3]; p.o.) | ED50 [4] | Ther. index, potentiation of yohimbine toxicity [4] | Inhibition, antiarrhythmial effect ([5]; dose 1 mg./kg.) | LD50 at 168 h [6] | Ther. index, reserpine ptosis (reserpine ptosis on mice) | ED50 (reserpine ptosis on mice) | Inhibition, antiarrhythmial effect ([5]; dose 4 mg./kg.) | ED50, antitremorine effect ([3]; p.o. 1 hour before tremorine 20 mg./kg. i.p.) | LD50 at 168 h ([6]; mice, p.o., 7 days observation) |
| --- | --- | --- | --- | --- | --- | --- | --- | --- | --- | --- | --- | --- | --- | --- | --- |
| COC1(c2ccc(Cl)cc2)[N-]C=N[n+]2ccc3ccccc3c21 (stereo not drawn) [Compound B, 1-(4-chloro-phenyl)-1-methoxy-as-triazino[6,1-a]isoquinoline-5-ium-2-(1H)-ide] | 1680 | 0.25 mg/kg | 34 mg/kg | 0.6 mg/kg | 40 mg/kg | 10.5 | 1.2 mg/kg | 350 | 44.3% | 420 mg/kg | 280.0 | 1.5 mg/kg |  |  |  |
| CCN(CC)CC(=O)Nc1c(C)cccc1C [Lidocain, α-diethylamino-2,6-dimethyl-acetanilide, reference compound] |  |  |  |  |  |  |  |  |  |  |  |  | 23.4% |  |  |
| CN(C)CCC=C1c2ccccc2CCc2ccccc21 [Amitriptyline, N,N-dimethyl-3-[dibenzo[a,d]-cycloheptadiene-5-ylidene]propylamine, reference compound] | 19 |  |  |  |  |  | 12.5 mg/kg | 18 |  |  | 3.45 | 65 mg/kg |  |  |  |
| Clc1ccc(-c2ncn[n+]3ccc4ccccc4c23)cc1 [Reference compound D, 1-(4-chloro-phenyl)-as-triazino[6,1-a]isochinolinium-bromide, reference compound] | 188 |  | 60 mg/kg |  |  |  |  |  |  |  | below 5.0 | > 120 mg/kg |  | inactive |  |
| OC1(c2ccc(Cl)cc2)[N-]C=N[n+]2ccc3ccccc3c21 (stereo not drawn) [Compound A, 1-(4-chloro-phenyl)-1-hydroxy-as-triazino[6,1-a]isoquinoline-5-ium-2-(1H)-ide] | 3667 | 0.15 mg/kg | 28 mg/kg | 7 mg/kg |  |  | 5 mg/kg | 110 | 39.6% | 550 mg/kg | 19.6 | 28 mg/kg |  |  |  |
| O=c1nc(-c2ccc(Cl)cc2)c2c3ccccc3cc[n+]2[n-]1 [Compound C, 1-(4-chloro-phenyl)-as-triazino[6,1-a]isoquinoline-5-ium-2-(1H)-ide-3-one] | 87 | 23 mg/kg |  |  |  |  |  |  |  |  |  |  |  |  | 2000 mg/kg |
